Laboratory results from patent US20240417405A1, “Substituted Spiro Derivatives” (Janssen Pharmaceutica NV, priority 2021, published 2024).
Read-outs that look alike come from different tables or passages of the source.

Key:
[1] = system: MOLM14 cells; experiment: Proliferation assay, spheroid-like growth, MOLM14 (MLL-AF9 rearranged); format: cell-based, human; conditions: 8 days, confluence as measure of spheroid size, read-out: spheroid assay_OneTime MOLM14 IC50
Procedure, shortened: (§1)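 MOLM14 (MLL-AF9) or KO-52 (MLL wildtype) cells were grown in ultra-low attachment round-bottom wells with compound (0.3% DMSO) for 8 days at 37 °C. Spheroid confluence was imaged live on day 8, normalized to DMSO and a high-dose reference/staurosporin control, and absolute IC50 fitted with variable slope.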

[2] = target: T1, menin/MLL (terbium chelate-labeled menin, FITC-MBM1 peptide) (Homo sapiens, UniProt O00255, T541A); experiment: Menin/MLL homogenous time-resolved fluorescence (HTRF) assay; format: binding; conditions: 30 min incubation
T1 construct: Menin (a.a 1-610-6xhis tag)
T1 sequence (O00255 with tags, fused parts or gaps T541A): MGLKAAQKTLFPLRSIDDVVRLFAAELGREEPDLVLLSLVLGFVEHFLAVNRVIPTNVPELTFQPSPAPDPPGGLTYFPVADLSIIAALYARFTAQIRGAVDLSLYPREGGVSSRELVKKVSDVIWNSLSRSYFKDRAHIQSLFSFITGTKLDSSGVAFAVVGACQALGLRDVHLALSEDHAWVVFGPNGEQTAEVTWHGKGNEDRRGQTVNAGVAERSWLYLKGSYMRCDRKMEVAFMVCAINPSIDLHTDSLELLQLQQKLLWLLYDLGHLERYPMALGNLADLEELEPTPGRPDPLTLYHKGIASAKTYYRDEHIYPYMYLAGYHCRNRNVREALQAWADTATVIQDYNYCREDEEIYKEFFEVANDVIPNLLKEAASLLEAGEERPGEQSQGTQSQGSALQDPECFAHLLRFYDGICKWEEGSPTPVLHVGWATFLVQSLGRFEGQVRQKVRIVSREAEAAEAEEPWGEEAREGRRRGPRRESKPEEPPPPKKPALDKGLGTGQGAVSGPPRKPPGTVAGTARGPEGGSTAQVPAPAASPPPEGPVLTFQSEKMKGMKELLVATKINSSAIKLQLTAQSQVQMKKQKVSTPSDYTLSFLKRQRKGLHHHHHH
Procedure, shortened: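 Read-out: TR-FRET ratio (FITC 520 nm / terbium 490 nm, ex. 337 nm) after 15 min with 75 nM FITC-MBM1 peptide. Test compound first sat 30 min with 200 pM Tb-menin 1-610-His, 0.5% DMSO, pH 7.5 Tris buffer. IC50 by Hill fit; values under 0.1 nM reported as 0.1 nM.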

[3] = system: KO-52 cells; experiment: Proliferation assay, spheroid-like growth, KO-52 (MLL wildtype control cell line); format: cell-based, human; conditions: KO-52 control cells, 8 days, confluence as measure of spheroid size, read-out: spheroid assay_OneTime KO-52 IC50
Procedure, shortened: as §1

| Structure (SMILES) | IC50 ([1]; Homo sapiens, MOLM-14, 192 h) | IC50 [2] | IC50 ([3]; Homo sapiens, 192 h) | IC50 [1] | IC50 [3] |
| --- | --- | --- | --- | --- | --- |
| CC(C)[C@@H]([C@H]1C[C@@H](N2CCC(C(=O)N(C)C)CC2)C1)N1CC2(CCN(c3ncnnc3Oc3ccc(F)cc3-c3ncncc3C3CC3)C2)C1 (single isomer, unassigned) [Compound 100] | 33 nM | 0.1 nM | 9810 nM | – | – |
| CC(C)[C@@H]([C@H]1C[C@H](N(C)C)C1)N1CC2(CCN(c3ncnnc3Oc3ccc(F)cc3-c3nnccc3C3CC3)C2)C1 (single isomer, unassigned) [Compound 261b] | 83 nM | 0.3 nM | 3070 nM | – | – |
| CC(C)C(C1CC(O)(c2cnn(C)c2)C1)N1CC2(CCN(c3ncnnc3Oc3ccc(F)cc3-c3cncnc3C3CC3)C2)C1 (stereo not drawn) [Compound 195] | 510 nM | 1.3 nM | > 15000 nM | – | – |
| CC(C)[C@H]([C@H]1C[C@@H](N2CCCCC2)C1)N1CC2(CCN(c3ncnnc3Oc3ccc(F)cc3-c3cncnc3C3CC3)C2)C1 (single isomer, unassigned) [Compound 48] | 4 nM | 0.3 nM | 1060 nM | – | – |
| CC(C)[C@@H]([C@H]1C[C@@H](N2CC[C@](C)(O)C2)C1)N1CC2(CCN(c3ncnnc3Oc3ccc(F)cc3-c3cnncc3C3CC3)C2)C1 (single isomer, unassigned) [Compound 112] | 6 nM | 0.1 nM | 10100 nM | – | – |
| CC(C)[C@@H]([C@H]1C[C@@H](N(C)C)C1)N1CC2(CCN(c3ncnnc3Oc3ccc(F)cc3-c3cccnc3C3CC3)C2)C1 (single isomer, unassigned) [Compound 90] | 2 nM | 0.1 nM | 540 nM | – | – |
| CC(C)[C@H]([C@H]1C[C@@H](N2CCC[C@@H](F)C2)C1)N1CC2(CCN(c3ncnnc3Oc3ccc(F)cc3-c3cncnc3C3CC3)C2)C1 (single isomer, unassigned) [Compound 206] | 9 nM | 0.2 nM | 7950 nM | – | – |
| CC(C)C([C@H]1C[C@@H](N2C[C@H]3COC[C@H]3C2)C1)N1CC2(CCN(c3ncnnc3Oc3ccc(F)cc3-c3cnccc3C3CC3)C2)C1 (stereo partly drawn) [Compound 138] | 2 nM | 0.1 nM | 460 nM | – | – |
| CC(C)[C@@H]([C@H]1C[C@@H](N2CCC(S(C)(=O)=O)CC2)C1)N1CC2(CCN(c3ncnnc3Oc3ccc(F)cc3-c3ncncc3C3CC3)C2)C1 (single isomer, unassigned) [Compound 98] | 58 nM | 0.4 nM | 4350 nM | – | – |
| CC(=O)NC1CC(C(C(C)C)N2CC3(CCN(c4ncnnc4Oc4ccc(F)cc4-c4cncnc4C4CC4)C3)C2)C1 (single isomer, unassigned) [Compound 2b] | – | 16.6 nM | – | 1310 nM | > 15000 nM |
| C[C@H]([C@H]1C[C@@H](NC(=O)OC(C)(C)C)C1)N1CC2(CCN(c3ncnnc3Oc3ccc(F)cc3-c3cncnc3C3CC3)C2)C1 [Compound 512a] | – | 29.8 nM | – | 40 nM | 310 nM |
| CC(C)[C@H]([C@H]1C[C@@H](N2CCC(S(=O)(=O)C(C)C)CC2)C1)N1CC2(CCN(c3ncnnc3Oc3ccc(F)cc3-c3cncnc3C3CC3)C2)C1 (single isomer, unassigned) [Compound 209] | 16 nM | 0.3 nM | 5260 nM | – | – |
| CC(C)[C@H]([C@H]1C[C@@H](N2CC[C@@](C)(O)C2)C1)N1CC2(CCN(c3ncnnc3Oc3ccc(F)cc3-c3cncnc3C3CC3)C2)C1 (single isomer, unassigned) [Compound 47] | 3 nM | 0.2 nM | 4360 nM | – | – |
| CC(C)C([C@H]1C[C@@H](NC(=O)C2CC2)C1)N1CC2(CCN(c3ncnnc3Oc3ccc(F)cc3-c3cnncc3C3CC3)C2)C1 (stereo partly drawn) [Compound 184] | 10 nM | 0.2 nM | 600 nM | – | – |
| CC(=O)N1CCN([C@H]2C[C@H]([C@@H](C(C)C)N3CC4(CCN(c5ncnnc5Oc5ccc(F)cc5-c5cncnc5C5CC5)C4)C3)C2)CC1 (single isomer, unassigned) [Compound 35] | 340 nM | 1.3 nM | > 15000 nM | – | – |
